From patent publication EP0585371B1, “AROMATIC OLIGOMERIC COMPOUNDS USEFUL AS MIMICS OF BIOACTIVE MACROMOLECULES” (RHONE-POULENC RORER INTERNATIONAL (HOLDINGS) INC., priority 1991, dated 1992) come the findings set out here.

In general, IC50 refers to the concentration that gives 50% inhibition. Low values mean greater potency in that assay, high ones weaker potency in that assay.

Experiment [1] concerns the target T1, ESb mouse lymphoma heparanase (Mus musculus, UniProt Q6YGZ1).
T1 construct: endogenous in cells; host or cells: ESb mouse lymphoma cells
T1 sequence (Q6YGZ1 28-535): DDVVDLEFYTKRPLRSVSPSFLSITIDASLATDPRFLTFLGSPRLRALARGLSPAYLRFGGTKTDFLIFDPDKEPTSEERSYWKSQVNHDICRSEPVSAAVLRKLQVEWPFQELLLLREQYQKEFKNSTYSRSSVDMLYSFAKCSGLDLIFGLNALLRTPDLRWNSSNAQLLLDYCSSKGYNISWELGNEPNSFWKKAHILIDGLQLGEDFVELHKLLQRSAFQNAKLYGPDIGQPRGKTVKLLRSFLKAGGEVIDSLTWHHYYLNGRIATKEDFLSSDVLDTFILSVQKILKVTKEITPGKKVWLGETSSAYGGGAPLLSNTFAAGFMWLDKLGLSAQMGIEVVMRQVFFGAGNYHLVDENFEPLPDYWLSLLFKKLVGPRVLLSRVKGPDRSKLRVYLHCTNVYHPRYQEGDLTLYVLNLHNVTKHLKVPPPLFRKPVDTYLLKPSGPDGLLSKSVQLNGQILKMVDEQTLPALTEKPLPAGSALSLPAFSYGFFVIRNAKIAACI
The experiment in a line: Inhibition of heparanase activity (degradation of labeled ECM heparan sulfate). The class given is biochemical. The settings on record: 24 hours incubation with labeled ECM. How it is done: Heparanase is an endoglucuronidase capable of degrading […] (HS) at specific intrachain sites.
The ability of compounds of the present invention to inhibit lymphomacell derived heparanase is tested in the assay system described by Vlodavsky et al., Cancer Research 43, 2704-2711 (1983). […] labeled ECM is incubated for 24 hours with ESb mouse lymphoma heparanase in the presence of various concentrations of the oligomers tested. Degradation of the HS is followed by gel filtration of the supematants. Heparanase activity is expressed as the total amount of labeled low-molecular-weight fragments released from the EMC substrate.

The test system of the next experiment is normal pooled plasma. Kind of experiment: Anticoagulation activity, Activated Partial Thromboplastin Time (APTT) test. The note with it: concentration required to double clotting time. On the procedure:
The following test measures anticoagulant activity of the oligomers of the present invention and utilizes the Activated Partial Thromboplastin Time (APTT) test, with the following procedures.
To an assay cuvette is added 100 µl of normal pooled plasma (George King Biomedical Inc., Kansas) and […] of a solution containing the test compound in aqueous 50 mM Tris hydrochloride at pH 7.5 (0.2 mg of sample in one ml buffer). The sample is placed in a MLA coagulation timer which automatically maintains the sample at 37°C for 2.5 minutes, 100 µl of actin activated cephaloplastin reagent is injected, kept 5 minutes, 100 µl of 35 mM CaCI is injected, and clot formation is determined photometrically and the clotting time recorded. Each example is examined at a variety of concentrations, generally from about .025 mg/ml to about 1 mg/ml, and the clotting times are graphed as a function of concentration. From the graphic results, the concentration required to double clotting time (ICDCT) is calculated by linear interpolation.

Experiment [2] relates to human fixed thrombin activated platelets. Kind of experiment: Platelet aggregation inhibition (fibrinogen-induced). The class given is cell-based. The settings on record: human fibrinogen added. On the procedure: The method for measuring platelet aggregation inhibition is essentially that of Ruggeri, et al., Proc. Natl. Acad. Sci. USA, 83, 5708-5712 (1986), using formalin-fixed platelets as prepared by Plow, et al., Proc. Natl. Acad. Sci. USA, 79, 3711-3715 (1982). A given amount of the compound of the present invention or other compound to be tested (10 to 100 µl of a 1 mg/ml solution) is incubated at 37°C with 400 µl of human fixed thrombin activated platelets for 2 minutes. 12.5 µl of human fibrinogen solution is added and aggregation is monitored using a platelet aggregation profiler (Model PAP-4). Controls consist of fibrinogen added to incubated platelets and the resulting aggregation is considered as 100%. Percent inhibition in the presence of a given concentration of test compound versus concentration of the compound is plotted and the concentration required to give 50% inhibition (IC50) is determined.

Experiment [3] relates to Vascular smooth muscle cells (VSMC). Kind of experiment: Smooth Muscle Cell DNA Synthesis Assay (3H-thymidine incorporation in response to PDGF). The class given is cell-based, swine. The note with it: inhibition of incorporation of 3H-thymidine in response to PDGF (9 ng/ml). How it is done: Vascular smooth muscle cells (VSMC) are isolated from swine coronaries obtained from swine hearts (Hatfield Meat Packing, Hatfield, PA) by enzyme dissociation as described by Gunther, et al., in J. Cell. Biol. 92, 289 (1982). Hyaluronidase (0.5 mg/ml) is added to facilitate dispersal. Cells are maintained in Earle's modified minimal essential medium (EMEM) with D-valine substituted for L-valine, supplemented with Hepes (10 mM), fetal bovine serum (FBS) (10%), penicillin (100 U/ml) and streptomycin ( 100 µg/ml).
The VSMC (passage 2) are plated at a density of 3 x 10^4 /cm2 (1x10^4 cells/well of 96 well tray) and after 48 hours of normal growth are arrested by replacement of above media with serum-free media for 48 hours consisting of: EMEM: Hams F12 (1:1), insulin, 5 µg/ml; transferrin, 35 µg/ml; selenite, 5 ng/ml; antibiotics and buffer (as above). The oligomer of the present invention to be tested (.01-10 µM) is added 2 hours prior to addition of porcine platelet derived growth factor (Research and Diagonostics, Minneapolis, MN), or FBS,in fresh serum-free media. Twenty-four hours later the oligomers are again added preceding addition of growth factors by 2 hours. […]
The VSMC are pulsed (5 hours) with ^3H-thymidine (Amersham, Arlington Heights, IL) (1 µCi/well of a 96 well plate; 42 Ci/mmole) added 15-18 hours after the last dose of growth factor. DNA synthesis is determined in NaOH extraction of ethanol/ether fixed cells as reported by Nemecek, et al., PNAS 83, 674 (1986). The cells are washed with phosphate bufferred saline (200 µl/well of 96-well tray. The cells are incubated with trichloroacetic acid (TCA) (10%, 200 ul) for 5 minutes to remove cytoplasmic label. After a rapid wash with cold 10% TCA, cells are fixed with ethanol/ether (2:1, 200 µl/well 5 min) and dried. The labeled DNA is extracted with 0.5 N NaOH (200 µl/well 30 min incubation, room temperature). The extracted DNA is neutralized (0.5 N HCI) and counted by liquid scintillation.
Statistical evaluation is as reported by Bilder, et al., Am. […] IC50 values are calculated by linear regression (RPL of RS1) from % inhibition of a minimum of 3 log fold dilutions of oligomers in the presence of PDGF (9 ng/ml) which give 70-80% of a maximal PDGF response. […] Percent inhibition is calculated by comparing the effect of PDGF alone (vehicle treated cultures + PDGF minus vehicle treated cultures without PDGF) to the effect of oligomers (oligomer + PDGF minus oligomer alone) and divided by the effect of PDGF times 100. i.e., = % inhibition = ((ΔVehicle + PDGF) - (Δoligomer + PDGF)/(Δvehicle + PDGF)) x 100.
For orientation: Uptake of a labelled nucleoside into DNA is a usual measure of proliferation.

Regarding `Cc1cc(O)c(Cc2cc(O)c(Cc3cc(O)c(Cc4cc(O)c(Cc5cc(O)c(Cc6cc(O)c(Cc7cc(O)c(Cc8cc(O)c(Cc9cc(O)c(Cc%10cc(O)c(Cc%11cc(O)c(Cc%12cc(O)c(Cc%13cc(O)c(Cc%14cc(O)c(Cc%15cc(O)c(Cc%16cc(O)ccc%16CCC(=O)O)cc%15CCC(=O)O)cc%14CCC(=O)O)cc%13CCC(=O)O)cc%12CCC(=O)O)cc%11CCC(=O)O)cc%10CCC(=O)O)cc9CCC(=O)O)cc8CCC(=O)O)cc7CCC(=O)O)cc6CCC(=O)O)cc5CCC(=O)O)cc4CCC(=O)O)cc3CCC(=O)O)cc2CCC(=O)O)cc1CCC(=O)O` [Ex 2, Step 26], the “% Inhibition of Heparanase Activity (5µg/ml)” value in experiment [1] is on record as 68%. The “APTT ICDCT” value in the experiment on normal pooled plasma came to 35 µg/mL. The “Platelet Aggregation IC50” value in experiment [2] came out at 250 µg/mL. The compound further displayed an IC50 in experiment [3] of 40 nM.
